Experiments:
Test in all cases: whole plant or invertebrate
Assay type in all cases: in vivo
[1] = system: corn planthopper (Pereginus maidis); conditions: rate 0.4 ppm
Method: (§1) The pest control protection afforded by the mixtures or compositions is not limited, however, to these species. The analysis of synergism or antagonism between the mixtures or compositions was determined using Colby's equation. The average % mortality data for the test compounds alone were inserted into the Colby's equation. If the observed average % mortality was higher than “p”, the expected % mortality, the mixture or composition had synergistic effects. If the observed average % mortality was equal to or lower than the expected mortality, the mixture or composition either had no synergistic effect or an antagonistic effect. In these tests, Compound 1 is the compound of Formula 1.
(§2) Test compounds were formulated using a solution containing 10% acetone, 90% water and 300 ppm X-77® Spreader Lo-Foam Formula non-ionic surfactant containing alkylarylpolyoxyethylene, free fatty acids, glycols and isopropanol (Loveland Industries, Inc.) to provide the desired concentration in ppm. Formulated test solutions were then applied in 1 mL volumes through a SUJ2 atomizer nozzle with ⅛ JJ custom body (Spraying Systems Co.) positioned 1.27 cm (0.5 inches) above the top of each test unit.
For evaluating control of corn planthopper (Pereginus maidis) through contact and/or systemic means, each test unit consisted of a small open cylindrical container with a 3- to 4-day-old corn (maize) plant (spike) inside. White sand was added to the top of the soil prior to application. Test compounds were formulated and sprayed with 3 replications as described for Test A. After spraying, the test units were allowed to dry for 1 hour before they were post-infested with 10 to 20 corn planthoppers (18- to 20-day-old nymphs) by sprinkling them onto the sand with a salt shaker. A black, screened cap was placed on the top of each container. The test units were held for 6 days in a growth chamber at 19-21° C. and 50-70% relative humidity.

[2] = system: silverleaf whitefly (Bemisia argentifolii Bellows and Perring); conditions: Table 2B; rate 10 ppm, compound alone
Method: as §1
For evaluating control of silverleaf whitefly (Bemisia argentifolii Bellows and Perring) through contact and/or systemic means, each test unit consisted of a small open container with a 12- to 14-day-old cotton plant inside. This was pre-infested by placing test units into cages infested with adult whiteflies so that oviposition on the cotton leaves could occur. The adults were removed from the plants with an air-blast nozzle, and the test units were capped. The test units were then stored 2 to 3 days before spraying.
as §2
The results for all experimental compositions in this test were replicated three times. After spraying of the formulated test composition, each test unit was allowed to dry for 1 hour and the cap removed. The test units were held for 13 days in a growth chamber at 28° C. and 50-70% relative humidity.

[3] = system: cotton melon aphid (Aphis gossypii Glover); conditions: rate 2 ppm
Method: as §1, §2
For evaluating control of cotton melon aphid (Aphis gossypii Glover) through contact and/or systemic means, each test unit consisted of a small open container with a 6- to 7-day-old cotton plant inside. This was pre-infested by placing on a leaf of the test plant 30 to 40 aphids on a piece of leaf excised from a culture plant (cut-leaf method). The larvae moved onto the test plant as the leaf piece desiccated. After pre-infestation, the soil of the test unit was covered with a layer of sand.
Test compounds were formulated and sprayed as described for Test A. The applications were replicated three times. After spraying of the formulated test compounds, each test unit was allowed to dry for 1 hour and then a black, screened cap was placed on top. The test units were held for 6 days in a growth chamber at 19-21° C. and 50-70% relative humidity.

Question: Which results are given for dinotefuran?
Answer: % mortality (obs) [1]: 86%; % mortality (obs) [2]: 74%; % mortality (obs) [3]: 64%
